# Test results reported in patent US8722580B2, “Agent for inhibiting cytokinin signaling” (Sumitomo Chemical Company, Limited, priority 2006, dated 2014).
# Key:
# Arabidopsis thaliana [1] = assay: Root growth-promoting activity test (Example 22); format: in vivo; conditions: main root length vs control section, 22° C., 10 days
# Procedure: (§1) Enshi standard medium having the following composition (see Table 18) was prepared. To cluster tubes was dispensed each 4 μl of a solution of a chemical substance in DMSO to a final concentration of 0.001 ppm to 10 ppm, and then, was dispensed each 600 μl of the sterilized Enshi standard medium. Then the resulting solution was well mixed. In each of the cluster tubes, 10-20 seeds of Arabidopsis thaliana were sown, and cultured at 22° C. for 10 days in the light. Then, the length of main roots (average main roots) generated from the seeds of Arabidopsis thaliana was measured. An average of eight repeats was determined, and a root growth rate was determined according to the following equation.
# (§2) Root growth rate (%)=(Average main root length in chemical substance-treated section)/(Average main root length in control section)×100
# Enshi standard medium determined having the following composition (Table 18) was prepared. A DMSO solution of a chemical substance was dispensed by 4 μl to cluster tubes to a final concentration of 0.001 ppm to 10 ppm and the sterilized Enshi standard medium was dispensed by 600 μl and then the resulting solution was well mixed. 10-20 seeds of A. thaliana per cluster tube were sown in the cluster tubes. After culture at 22° C. for 10 days in bright light, the length of main roots (average main roots) took from seeds of A. thaliana was measured. An average of eight repeats was determined and the root growth rate was determined.
# Root growth rate (%)=(Average main root length of chemical substance-treated section)/(Average main root length of control section)×100
# cytokinin receptor CRE1 = target: T1, cytokinin receptor CRE1 (Arabidopsis thaliana, UniProt Q9C5U0, S567G/T1018A); assay: Inhibition of intracellular signaling from plant-derived cytokinin receptor, growth of transformed yeast cell TM182-CRE1; format: cell-based; conditions: trans-zeatin 0.6 ppm, chemical substance 2 ppm; for Relative growth rate (%) in test section of test substance to control section, Transformed cell TM182-CRE1: 30° C., 24 hours, turbidity OD 600; for Activity (%) of test substance for inhibiting intracellular signaling from plant-derived cytokinin receptor of cell: = 100 − relative growth rate of TM182-CRE1
# T1 construct: expressed in transfected cells; host or cells: Saccharomyces cerevisiae TM182 (sln1Δ) transformed with p415CYC-CRE1
# Procedure: (§3) The transformed cell TM182-CRE1 and the transformed cell TM182-p415CYC1 obtained in Example 6 were each inoculated in 10 ml of a DOLU+Gal medium, and preincubated at 30° C. for 18 hours to obtain a preincubation liquid for each of the transformed cells. The preincubation liquid was diluted with a DOLU+Glu medium for the transformed cell TM182-CRE1 or with a DOLU+Gal medium for the transformed cell TM182-p415CYC1 until OD600=0.1 was reached, to obtain a preincubation dilution for each of the transformed cells.
# (§4) To each well of a 96-well plate was added 1 μl of a 200 ppm solution of a test substance in dimethyl sulfoxide (DMSO) to prepare an Assay plate. At the same time, as controls, only 1 μl of DMSO was added to a part of wells. An assay plate for the transformed cell TM182-CRE1 and an assay plate for the transformed cell TM182-p415CYC1 were prepared.
# (§5) A 10,000 ppm solution of trans-zeatin (cytokinin) in DMSO was 50-fold diluted with a DOLU+Gul medium to 200 ppm. The 200 ppm trans-zeatin solution was added in an amount of 3/1,000 volume to each of the above-described preincubation dilution to prepare each preincubation dilution containing trans-zeatin at 0.6 ppm. The 0.6 ppm preincubation dilution was added in an amount of 100 μl to each wells of the assay plate for each transformed cell. The plates were incubated at 30° C. for 24 hours. Then, turbidity (OD 600) of each well was measured by using a plate reader. The activity of the test substance for inhibiting intracellular signaling from a plant-derived cytokinin receptor of a cell was tested by comparing the measured turbidity with the turbidity of the control well.
# (§6) (Relative growth rate in test section to control section) [%]=[(Turbidity in test section)−(Turbidity in blank)]/[(Turbidity in control section)−(Turbidity in blank)]×100 (Activity of inhibiting intracellular signaling from plant-derived cytokinin receptor of cell) [%]=100−(Relative growth rate in test section to control section)
# (§7) In all cases, the existing concentration of trans-zeatin was adjusted to 0.6 ppm and the existing concentration of a chemical substance was adjusted to 2 ppm.
# (§8) In all cases, the existing concentration of trans-zeatin was adjusted to 0.6 ppm and the existing concentration of a chemical substance was adjusted to 2 […].
# [2] = system: transformed cell TM182-p415CYC1; assay: Control growth test with transformed yeast cell TM182-p415CYC1 (toxicity to yeast); format: cell-based; conditions: trans-zeatin 0.6 ppm; chemical substance 2 ppm; 30° C., 24 hours; turbidity OD 600
# Procedure: as §3, §4, §5, §6, §7, §8
# Arabidopsis thaliana [3] = assay: Root growth-promoting activity test (Example 9); format: in vivo; conditions: main root length vs control section, 22° C., 10 days
# Procedure: as §1, with “10)” for “18)”
# as §2
# [4] = test final concentration 1.25 ppm (highest root growth rate)
# [5] = test final concentration 1.25 ppm (concentration with highest root growth rate)
# [6] = test final concentration 2.5 ppm (highest root growth rate)
# [7] = test final concentration 2.5 ppm (concentration with highest root growth rate)
# [8] = test final concentration 0.625 ppm (highest root growth rate)
# [9] = test final concentration 0.625 ppm (concentration with highest root growth rate)
# T1 sequence (Q9C5U0 24-1080 S567G/T1018A): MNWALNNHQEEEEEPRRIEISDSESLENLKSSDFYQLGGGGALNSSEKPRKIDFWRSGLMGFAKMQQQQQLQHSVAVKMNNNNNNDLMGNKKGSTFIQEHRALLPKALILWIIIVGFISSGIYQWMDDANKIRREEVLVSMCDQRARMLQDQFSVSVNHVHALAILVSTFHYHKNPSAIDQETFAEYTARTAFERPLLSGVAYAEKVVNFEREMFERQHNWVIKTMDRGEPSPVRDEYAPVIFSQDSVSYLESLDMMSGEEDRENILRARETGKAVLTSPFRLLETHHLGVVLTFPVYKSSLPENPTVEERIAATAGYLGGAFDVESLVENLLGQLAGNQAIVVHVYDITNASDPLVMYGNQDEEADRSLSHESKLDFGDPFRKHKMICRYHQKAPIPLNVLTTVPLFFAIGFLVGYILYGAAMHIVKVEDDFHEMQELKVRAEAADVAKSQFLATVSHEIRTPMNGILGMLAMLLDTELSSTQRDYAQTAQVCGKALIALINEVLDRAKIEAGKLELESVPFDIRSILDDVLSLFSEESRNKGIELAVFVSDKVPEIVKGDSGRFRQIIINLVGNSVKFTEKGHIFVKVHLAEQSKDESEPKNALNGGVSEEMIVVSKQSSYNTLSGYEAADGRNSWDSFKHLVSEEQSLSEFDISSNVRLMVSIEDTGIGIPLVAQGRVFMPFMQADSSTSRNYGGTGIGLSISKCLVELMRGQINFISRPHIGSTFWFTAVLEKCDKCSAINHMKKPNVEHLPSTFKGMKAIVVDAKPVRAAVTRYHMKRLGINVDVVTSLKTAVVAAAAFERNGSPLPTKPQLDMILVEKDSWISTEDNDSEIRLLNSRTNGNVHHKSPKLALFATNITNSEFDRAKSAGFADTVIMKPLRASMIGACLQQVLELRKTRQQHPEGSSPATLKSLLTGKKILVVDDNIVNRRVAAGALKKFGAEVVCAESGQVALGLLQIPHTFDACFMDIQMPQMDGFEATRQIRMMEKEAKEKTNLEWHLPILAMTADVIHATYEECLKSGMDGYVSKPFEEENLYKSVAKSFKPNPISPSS
Structure (SMILES),Root growth-promoting activity (root growth rate) (Arabidopsis thaliana [1]; [4]) [%],"Relative growth rate (%) in test section of test substance to control section, Transformed cell TM182-CRE1 (cytokinin receptor CRE1) [%]",Activity (%) of test substance for inhibiting intracellular signaling from plant-derived cytokinin receptor of cell (cytokinin receptor CRE1) [%],"Relative growth rate (%) in test section of test substance to control section, Transformed cell TM182-p415CYC1 [2] [%]",Root growth-promoting activity (root growth rate) (Arabidopsis thaliana [3]; [5]) [%],Root growth-promoting activity (root growth rate) (Arabidopsis thaliana [1]; test final concentration 10 ppm (highest root growth rate)) [%],Root growth-promoting activity (root growth rate) (Arabidopsis thaliana [3]; test final concentration 10 ppm (concentration with highest root growth rate)) [%],Root growth-promoting activity (root growth rate) (Arabidopsis thaliana [1]; [6]) [%],Root growth-promoting activity (root growth rate) (Arabidopsis thaliana [3]; [7]) [%],Root growth-promoting activity (root growth rate) (Arabidopsis thaliana [1]; [8]) [%],Root growth-promoting activity (root growth rate) (Arabidopsis thaliana [3]; [9]) [%]
COCCNc1nc(-c2ccccc2)c2cc(Cl)ccc2n1 [Ic3-7],142.5,2.8,97.2,104.1,142.5,–,–,–,–,–,–
CCNc1nc(-c2ccccc2)c2cc(Cl)ccc2n1 [Ic3-24],122.8,2.1,97.9,112.5,122.8,–,–,–,–,–,–
OCCCNc1nc(-c2ccccc2)c2ccc(Cl)cc2n1 [Ic10-1],–,–,–,–,–,163.6,163.6,–,–,–,–
COC(=O)CCNc1nc(-c2ccccc2)c2cc(Cl)ccc2n1 [Ic3-43],–,0.8,99.2,122.0,–,–,–,137.9,137.9,–,–
CCOCCCNc1nc(-c2ccccc2)c2cc(Cl)ccc2n1 [Ic3-46],–,1.3,98.7,92.2,–,–,–,121.6,121.6,–,–
OCCCNc1nc(-c2ccccc2)c2cc(Cl)cc(Cl)c2n1 [Ic12-1],–,2.8,97.2,106.3,–,–,–,184.6,184.6,–,–
COC(=O)CNc1nc(-c2ccccc2)c2cc(Cl)ccc2n1 [Ic3-42],–,−0.7,100.7,111.5,–,–,–,–,–,128.6,128.6
CCCNc1nc(-c2ccccc2)c2cc(Cl)ccc2n1 [Ic3-8],136.4,–,–,–,136.4,–,–,–,–,–,–
CC(=CCNc1nc(-c2ccccc2)c2cc(Cl)ccc2n1)CO [Ic3-18],–,4.0,96.0,105.3,–,–,–,139.5,139.5,–,–
OCCOCCNc1nc(-c2ccccc2)c2cc(Cl)ccc2n1 [Ic3-40],–,0.7,99.3,123.4,–,–,–,–,–,125.8,125.8
